This note sets out measurements from patent US12486259B2, “FXR agonist having pyrazine structure, and preparation method and use” (JIANGSU TASLY DIYI PHARMACEUTICAL CO., LTD., priority 2020, dated 2025).

The target of experiment [1] is T1, GST-labeled recombinant human FXR protein (Homo sapiens, UniProt Q96RI1).
T1 construct: purchased Invitroren (so in the source)
T1 sequence (Q96RI1 262-486 limits assumed): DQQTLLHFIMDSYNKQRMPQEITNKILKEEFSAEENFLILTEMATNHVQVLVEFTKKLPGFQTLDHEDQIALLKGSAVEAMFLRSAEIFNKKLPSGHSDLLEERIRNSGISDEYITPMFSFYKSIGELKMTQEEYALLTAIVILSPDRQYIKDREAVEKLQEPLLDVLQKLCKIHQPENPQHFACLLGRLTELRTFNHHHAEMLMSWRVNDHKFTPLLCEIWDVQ
T1 sequence (Q15788 676-700 partner limits assumed): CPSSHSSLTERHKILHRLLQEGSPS
Put plainly: Agonistic activity on FXR receptor (GST-FXR / SRC-1 bead assay, protein level). As to conditions: 0.4 nM FXR, 30 nM SRC-1, protein level. The format is biochemical. Here is the method:
Experimental procedures: FXR (GST-labeled recombinant human FXR protein, manufacturer: Invitroren, Item number: PV4835) and SRC-1 (steroid receptor co-activator-1) are thawed on ice. Three solutions of ABC are prepared by a buffer solution, solution A, 0.4 n M FXR and 30 nM SRC-1; solution B, 10 ug/ml Acceptor Beads; solution C, 10 ug/ml Donor Beads. Solution A is added to the plate at 15 uL per well. It is incubated at room temperature for 1 hour. Solution B is added to the plate at 7.5 uL per well. It is incubated at room temperature for 1 hour. Solution C is added to the plate at 7.5 uL per well. It is incubated at room temperature for 1 hour. It is read from the microplate reader Envision. The data are curve fitted by using Prism 5.0 to calculate the EC50.

Experiment [2] deals with T2, FXR (Homo sapiens, UniProt Q96RI1).
T2 construct: expressed in transfected cells
T2 sequence (Q96RI1 1-486): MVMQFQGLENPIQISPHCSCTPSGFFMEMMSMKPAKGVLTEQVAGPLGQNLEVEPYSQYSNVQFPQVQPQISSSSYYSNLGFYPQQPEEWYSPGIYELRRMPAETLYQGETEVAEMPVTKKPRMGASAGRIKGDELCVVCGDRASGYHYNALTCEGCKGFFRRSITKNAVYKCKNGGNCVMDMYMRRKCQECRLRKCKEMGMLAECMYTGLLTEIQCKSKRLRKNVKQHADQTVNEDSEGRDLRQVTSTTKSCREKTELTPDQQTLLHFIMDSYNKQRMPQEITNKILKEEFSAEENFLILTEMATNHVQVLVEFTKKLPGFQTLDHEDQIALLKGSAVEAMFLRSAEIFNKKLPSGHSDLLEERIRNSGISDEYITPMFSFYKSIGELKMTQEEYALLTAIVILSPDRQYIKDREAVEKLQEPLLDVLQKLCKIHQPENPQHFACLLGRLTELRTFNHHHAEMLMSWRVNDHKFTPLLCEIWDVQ
In words: Intracellular FXR-TR-FRET experiment (pBIND-FXR / pG5Luc dual luciferase). As to conditions: cellular level, 18 hours with compound. It counts as cell-based. Here is the method: • 1. Cell culture: a, trypsinize dishes and seed cells are taken with appropriate density in 10 ml of complete […] at 37° C. b. Cells are incubated for 24 hours in 5% CO2 and humidified. • 2. Cell inoculation and transfection: FuGENE HD transfection reagent is used as a transfection reagent. • a. The transfection mixture is prepared according to the following procedure:
• b. The tube is tapped vigorously to mix the contents. The mixture is incubated at room temperature for 15 minutes. • c. Discs are trypsinized and cell density is determined. • d. The cytolymph is diluted to the desired volume at a density of 500,000 cells/ml (100 ul/well for 96-well plate). • e. The required volume of previously prepared transfection mixture is added to both cytolymph, and then 100 ul/well of cytolymph is dispensed onto the assay plate. • f. The assay plate is incubated under humidified conditions at 37° C., 5% CO2 for 24 hours. • 3. Compound preparation: • a. Compound stocks are prepared with a FXR working concentration of 10 mM and then diluted 3-fold in 100% DMSO. • b. 10 ul compound is added to 90 ul complete medium. • c. 5 ul compound solution is added to each well. • d. The plate is incubated at 37° C., 5% CO2 and humidified for 18 hours. • 4. Dual luciferase assay: the firefly and Renilla luciferase signals are analyzed by Dual Luciferase Reporter Assay System from Promega. Envision is used as a photometer. • 5. Result calculation: data values are normalized by dividing the firefly signal by the Renilla signal. “F/R” means “firefly/Renilla”. This normalization eliminates differences in different cell numbers and transfection efficiencies in each well. The % Activation value is calculated. The % Activation value is calculated by the following formula.
X is the “F/R” value for each concentration point. The minimum value is the average “F/R” value for the no compound control. The maximum value is the average “F/R” value of the reference compound control. • 6.

Take `O=C(O)c1cccc(C2CC(O)(c3cnc(OCc4c(-c5c(Cl)cccc5Cl)noc4C4CC4)cn3)C2)c1` (centres unmarked) [TM-01, 3-(3-(5-(5-cyclopropyl-3-(2,6-dichlorophenyl)isoxazole-4-ylmethoxy)-2-pyrazine)-1-hydroxycyclobutane) benzoic acid]: the concentration giving a half-maximal response (EC50) was 540 nM in experiment [1] and 1280 nM in experiment [2].
The matching figures for `O=C(O)c1cccc(N2CC(O)(c3cnc(OCc4c(-c5c(Cl)cccc5Cl)noc4C4CC4)cn3)C2)c1` [TM-02, 3-(3-(5-((5-cyclopropyl-3-(2,6-dichlorophenyl)isoxazol-4-yl)methoxy)pyrazine-2-yl)-3-hydroxyazetidin-1-yl) benzoic acid]: 2320 nM and 3140 nM.
The matching figures for `CC(C)c1onc(-c2c(Cl)cccc2Cl)c1COc1cnc(C2(O)CC(c3cccc(C(=O)O)c3)C2)cn1` (centres unmarked) [TM-06, 3-(3-(5-(5-isopropyl-3-(2,6-dichlorophenyl)isoxazole-4-ylmethoxy)-2-pyrazine)-1-hydroxycyclobutane) benzoic acid]: 2410 nM and 1790 nM.
The matching figures for `Cc1cc(C(=O)O)cc(C2CC(O)(c3cnc(OCc4c(-c5c(Cl)cccc5Cl)noc4C(C)C)cn3)C2)c1` (centres unmarked) [TM-09, 3-(3-(5-((3-(2,6-dichlorophenyl)-5-isopropylisoxazol-4-yl)methoxy)pyrazine-2-yl)-3-hydroxycyclobutyl)-5-methyl benzoic acid]: 480 nM and 260 nM.

One may read the EC50 as the concentration at which the effect is half-maximal.
